The source of these data is PubChem BioAssay (NCI).

Where “and” joins values, the source holds several entries; their conditions need not be identical. Equal values may be shown once.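 Step 1: Grow cells in 96-well plates. Step 2: Expose to compound for 48 hours at 5 concentrations. Step 3: Interpolate endpoints linearly; if unreached, use highest concentration. At the GI50, growth is halved. At the TGI there is no net growth.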 Where only a bound is given, the exact number is not on record here.

Test systems include COLO 205 colon; SW-620 colon; M14 melanoma; MOLT-4 leukemia; HS 578T breast; IGROV1 ovarian; SF-295 CNS; OVCAR-8 ovarian; K-562 leukemia; SR leukemia.
Assay in all cases: NCI-60 cell line screen, 48 h

Take `O=C1NC(=NCCc2ccc(Br)cc2)S/C1=C\c1ccc2ncccc2c1`: the GI50 in the assay with COLO 205 colon is more than 25 µM; in the assay with SW-620 colon it was more than 25 µM; in the assay on M14 melanoma, more than 25 µM; with MOLT-4 leukemia it was 19.7 µM; in the assay on HS 578T breast it was 11 µM; in the assay on IGROV1 ovarian, more than 25 µM. The GI50 with SF-295 CNS was more than 23.2 µM; in the assay with OVCAR-8 ovarian it was more than 25 µM; with K-562 leukemia, 24.6 µM; in the assay on SR leukemia it was 7.31 µM. Further, the TGI in the assay on COLO 205 colon, in the assay with SW-620 colon, with M14 melanoma, with MOLT-4 leukemia, in the assay with HS 578T breast and in the assay with IGROV1 ovarian was more than 25 µM throughout. Also, the TGI in the assay on SF-295 CNS, in the assay on OVCAR-8 ovarian, in the assay with K-562 leukemia and in the assay with SR leukemia was more than 25 µM in each case.

For `CCC(=O)Nc1nnc(Cc2ccc(OC)c(OC)c2)s1`, the GI50 with COLO 205 colon, in the assay on SW-620 colon, in the assay with M14 melanoma, in the assay with MOLT-4 leukemia, in the assay on HS 578T breast and in the assay on IGROV1 ovarian was more than 100 µM throughout. The GI50 in the assay on SF-295 CNS, in the assay on OVCAR-8 ovarian, in the assay with K-562 leukemia and in the assay on SR leukemia was more than 100 µM throughout. In addition, the TGI in the assay on COLO 205 colon, with SW-620 colon, with M14 melanoma, in the assay with MOLT-4 leukemia, in the assay with HS 578T breast and in the assay on IGROV1 ovarian was more than 100 µM each time. Also, the TGI in the assay with SF-295 CNS, in the assay with OVCAR-8 ovarian, in the assay on K-562 leukemia and in the assay on SR leukemia was more than 100 µM throughout.

Take `Cc1ccc(-c2nc3sc(C)cn3c2/C=C2\C(=O)Nc3ccc(Cl)cc32)cc1`: the GI50 in the assay with COLO 205 colon was 31 µM; in the assay on SW-620 colon, 19.1 µM; with M14 melanoma, 15.5 µM; in the assay on MOLT-4 leukemia, 26.2 µM; in the assay with HS 578T breast, 8.02 µM; with IGROV1 ovarian it was 12.6 µM. Further, the GI50 in the assay with SF-295 CNS is 8.2 µM; in the assay with OVCAR-8 ovarian, 15.2 µM; with K-562 leukemia, 22.8 µM; with SR leukemia, 10.8 µM. The TGI in the assay on COLO 205 colon is more than 100 µM; with SW-620 colon it was 52.1 µM; in the assay with M14 melanoma it was 29.9 µM; with MOLT-4 leukemia it was 82.7 µM; with HS 578T breast, 73.7 µM; in the assay with IGROV1 ovarian, 27.6 µM. In addition, the TGI was 32.9 µM with SF-295 CNS, 33.5 µM in the assay on OVCAR-8 ovarian, 84.1 µM in the assay on K-562 leukemia and 36.7 µM in the assay with SR leukemia.

Consider `CNC(=O)c1cc(Oc2ccc(NC(=O)Nc3cc(C(C)(C)C)nn3-c3ccc4ncccc4c3)c(F)c2)ccn1`, for which the GI50 in the assay on COLO 205 colon was 0.459 µM and 0.62 µM; with SW-620 colon, 3.51 µM and 3.16 µM; in the assay on M14 melanoma it was 0.37 µM and 0.395 µM; in the assay on MOLT-4 leukemia, 1.58 µM and 2.08 µM; with HS 578T breast, 1.14 µM and 1.03 µM; in the assay on IGROV1 ovarian, 0.712 µM and 1.26 µM. The GI50 was 1.69 µM and 1.58 µM in the assay on SF-295 CNS; 2.24 µM and 1.99 µM with OVCAR-8 ovarian; 0.0151 µM and 0.0275 µM in the assay on K-562 leukemia; 0.633 µM and 0.497 µM in the assay on SR leukemia. In addition, the TGI is 1.85 µM and 2.2 µM in the assay with COLO 205 colon; more than 29.6 µM with SW-620 colon; 2.49 µM and 2 µM in the assay on M14 melanoma; 8.06 µM and 5.85 µM in the assay with MOLT-4 leukemia; 5.42 µM and 5.03 µM in the assay with HS 578T breast; 6.61 µM and 6.8 µM with IGROV1 ovarian. The TGI in the assay on SF-295 CNS was 8.26 µM and 5.62 µM; in the assay on OVCAR-8 ovarian it was 7.82 µM and 6.84 µM; in the assay on K-562 leukemia, more than 100 µM; in the assay on SR leukemia, 3.91 µM and 3.85 µM.

Consider `Fc1ccc(Nc2nc(Nc3ccc(-c4nc5ccccc5[nH]4)cc3)c3cn[nH]c3n2)cc1`, for which the GI50 in the assay with COLO 205 colon is 1.75 µM; in the assay with SW-620 colon, 2.03 µM; with M14 melanoma, 2.01 µM; in the assay on MOLT-4 leukemia, 2.55 µM; with HS 578T breast it was 2.12 µM; with IGROV1 ovarian it was 1.75 µM. Also, the GI50 is 1.87 µM in the assay on SF-295 CNS, 2.37 µM with OVCAR-8 ovarian, 3.04 µM with K-562 leukemia and 2.22 µM in the assay with SR leukemia. In addition, the TGI with COLO 205 colon is 3.67 µM; in the assay with SW-620 colon, 4.24 µM; with M14 melanoma it was 3.95 µM; in the assay on MOLT-4 leukemia it was 5.63 µM; in the assay with HS 578T breast, 5.35 µM; in the assay on IGROV1 ovarian, 3.84 µM. For the same compound, the TGI in the assay on SF-295 CNS came out at 4.08 µM; with OVCAR-8 ovarian it was 5.37 µM; in the assay on K-562 leukemia, 7.41 µM; in the assay on SR leukemia it was 5.9 µM.

`O=C1/C(=C/c2ccc([N+](=O)[O-])o2)Oc2ccc(Cl)cc21`: the GI50 in the assay with COLO 205 colon is 1.89 µM; in the assay with SW-620 colon it was 0.541 µM; with M14 melanoma it was 2.01 µM; with MOLT-4 leukemia it was 2.05 µM; in the assay on HS 578T breast, 2.95 µM; in the assay on IGROV1 ovarian it was 1.92 µM. Moreover, the GI50 is 11.5 µM in the assay on SF-295 CNS, 2.06 µM in the assay on OVCAR-8 ovarian, 0.438 µM with K-562 leukemia and 0.267 µM in the assay on SR leukemia. The TGI was 4.08 µM with COLO 205 colon; 1.99 µM with SW-620 colon; 4.93 µM with M14 melanoma; 6.73 µM with MOLT-4 leukemia; more than 27.6 µM in the assay on HS 578T breast; 4.5 µM in the assay with IGROV1 ovarian. For the same compound, the TGI is 49.1 µM with SF-295 CNS, more than 22.1 µM in the assay on OVCAR-8 ovarian, 2.17 µM in the assay on K-562 leukemia and 1.26 µM in the assay on SR leukemia.

Turning to `COc1cc(C2NC(=O)C(C#N)=C(Nc3cccc(C)c3)S2)ccc1O` (stereo not given), the GI50 in the assay on COLO 205 colon, with SW-620 colon, in the assay with M14 melanoma, in the assay on MOLT-4 leukemia, in the assay with HS 578T breast and in the assay on IGROV1 ovarian was more than 100 µM in each case. Further, the GI50 with SF-295 CNS, in the assay with OVCAR-8 ovarian, with K-562 leukemia and in the assay on SR leukemia was more than 100 µM in each case. Moreover, the TGI in the assay with COLO 205 colon, in the assay on SW-620 colon, in the assay with M14 melanoma, with MOLT-4 leukemia, in the assay on HS 578T breast and with IGROV1 ovarian was more than 100 µM in each case. Besides, the TGI in the assay with SF-295 CNS, in the assay with OVCAR-8 ovarian, in the assay on K-562 leukemia and in the assay on SR leukemia was more than 100 µM throughout.
